Results published in patent publication US20100178700A1, “NOVEL THYMIC CELLULAR POPULATIONS AND USES THEREOF” (priority 2007, published 2010).
Entries after “also recorded” stand apart in the source; their conditions may differ. Like-named read-outs stand apart in the source and are kept apart here.

Experiments:
[1] = test system: Aire; assay: Aire expression in mTEC during thymic recovery
Text: Primary antibodies and lectins used were FITC-conjugated UEA-1 lectin (Silenus?), Ki67 (BD), PE-conjugated Ly51 (clone 6C3, Pharmingen) Ki67 (BD), I-A/I-E (BD), CD45 (LCA)(BD), PerCP Cy5.5 conjugated CD45 (BD), APC-conjugated I-A/I-E (Miltenyi), biotinylated CD31 (BD), and EpCAM (G8.8a, prepared in-house from a clone kindly donated by Dr. A. Fan) MTS15 hybridoma supernatant (prepared in-house), rat anti-mouse Aire (a kind gift from Dr. H. Scott). Secondary reagents used were FITC-conjugated anti-rat IgG2c, Streptavidin PerCPCy5.5 and Streptavidin APC.
Antibodies and conjugates were obtained from BD Pharmingen (USA) unless otherwise indicated. […] Secondary antibodies used were anti-rat IgG2c (Southern Biotech, USA), anti-rat IgG2a (Southern Biotech, USA) Streptavidin PerCP Cy5.5 and Streptavidin APC, anti-rabbit IgG-Alexa 488 (Invitrogen, USA).

[2] = test system: thymocytes; assay: Thymus cellularity and thymocyte subsets after drug-induced thymus depletion; conditions: mice, i.p. treatment
Method: (§1) Male and female C57B16 mice aged at 4-8 weeks were obtained from Monash Animal Services and housed under SPF conditions.
(§2) Control mice were injected with the same volume of PBS.
Control mice were given PBS alone.
(§3) Mice were given either 20 mg/kg Dexamethasone (Lyppards, Australia) or the equivalent volume of PBS as a single i.p. injection.
(§4) In all experiments, the final day of treatment was designated as Day 0. Mice were then humanely killed by CO2 asphyxiation at various timepoints.
(§5) Each thymus was thoroughly cleaned of fat and connective tissue and its capsule nicked with fine scissors. Each thymus was then incubated at 37° C. for 10 minutes in 2 mL of 0.125% (w/v) Collagenase D with 500 μL of 0.1% (w/v) DNAse I (both from Roche, Germany) in RPMI-1640, with regular agitation. The supernatant was collected, kept on ice, and the digestion repeated using the remaining settled thymic fragments. After 3 digestions, the remaining aggregates were incubated for 10 minutes with 1 mL of 0.125% (w/v) Collagenase/Dispase (Roche, Germany) with 500 μL 0.1% (w/v) DNAse I in RPMI-1640. Cells from all supernatant fractions were then pooled and centrifuged at 472 gmax for 5 minutes, then resuspended in cold EDTA/FACS buffer (5 mM EDTA in PBS with 2% FCS and 0.02% NaN3). Cells were filtered through 100 μm mesh. Cell counts were performed using a Z2 Coulter Counter (Beckman Coulter USA).
(§6) Male and female C57B1/6J (B6) mice aged at 8-12 weeks were obtained from Monash Animal Services and housed under SPF conditions, in accordance with institutional guidelines.
(§7) In all experiments, the final day of treatment was designated as Day 0. Mice were then humanely killed by CO2 asphyxiation at indicated timepoints.
(§8) Briefly, thymi were agitated in RPMI-1640 to flush out thymocytes. After collecting supernatant, thymic fragments were incubated individually at 37° C. for 10 minutes in 2 mL of 0.125% (w/v) Collagenase D with 500 μL of 0.1% (w/v) DNAse I (both from Roche, Germany) in RPMI-1640, with regular agitation. The supernatant was collected, kept on ice, and the digestion repeated three times, followed by a final 10 minute digestion in 1 mL of 0.125% (w/v) Collagenase/Dispase (Roche, Germany) with 500 μL 0.1% (w/v) DNAse I in RPMI-1640. The supernatant fractions were then pooled and centrifuged, keeping each thymus separate, at 472 gmax for 5 minutes, and resuspended in cold EDTA/FACS buffer (5 mM EDTA in PBS with 2% FCS and 0.02% Sodium Azide). Cells were filtered through 100 μm mesh. Cell counts were performed using a Z2 Coulter Counter (Beckman Coulter USA).

[3] = test system: thymic epithelial cells; assay: Thymic epithelial cell (TEC) subsets by flow cytometry after drug-induced thymic damage; conditions: for effect on TEC subsets: mice, i.p. treatment
Method: as §2
Control mice were given PBS alone.
as §3, §4, §5
(§9) Cells were washed in cold EDTA/FACS buffer and 5×10^6 cells dispensed into 96 well round-bottom plates, Cells were suspended in 50 μL of a primary mAb (hybridoma supernatant or suboptimal dilution of purified antibody) or conjugate for 15 minutes at 4° C. in the dark, followed by a wash step (200 μL EDTA/FACS buffer, 1300 rpm centrifuge for 3 minutes). Secondary mAb were then added and incubated and cells were washed twice. For intracellular staining, cells were washed once in cold PBS then fixed and permeabilised using the BD Cytofix/Cytoperm kit (BD Biosciences, USA) according to the manufacturer's instructions. Cells were stained with 50 μL of primary antibody diluted in PermWash buffer for 30 mins, then washed in PermWash buffer and incubated with secondary antibody where required. Cells were washed in PermWash, then finally washed in FACS buffer, before being resuspended in 200 μL of FACS or EDTA/FACS buffer for acquisition.
(§10) A FACScalibur and CellQuest software (BD Biosciences, USA) were used for flow cytometric analysis, using four fluorescent channels (FL1 for FITC, FL2 for PE, FL3 for CyChrome/PECy5, PerCP and PI, and FL4 for APC). All compensations were performed on single colour labelling of an appropriate cell sample containing both positive and negative populations. Exclusion of non-viable and haemopoietic cells was based on forward light scatter versus side light scatter and CD45 expression respectively.
as §7, §8

[4] = test system: thymocytes; conditions: mouse, in vivo
Method: as §1, §2
Control mice were given PBS alone.
as §3, §4, §5, §6, §7, §8

[5] = test system: thymic epithelial cells; conditions: mouse, in vivo
Method: as §2
Control mice were given PBS alone.
as §3, §4, §5, §9, §10, §7, §8

[6] = days after cessation of treatment

Row | Compound | effect on Aire expression ([1]; by treatment) | effect on all thymocyte subsets [2] | effect on thymic cellularity / thymic involution [2] | recovery of mTEC-lo cells to normal / untreated levels [3, 6] | return of TEC subsets to normal / homeostatic proportions [3, 6] | effect on TEC subsets [3] | effect on TEC subsets ([3]; listed as cyclophosphamide) | effect on non-TEC stromal cells ([3]; mouse, in vivo) | effect on Aire expression ([1]; mouse, in vivo) | return of thymic cellularity to untreated levels [4] | effect on all thymocyte subsets ([4]; ip) | recovery of mTEC-hi [5] | return of TEC subsets to normal / homeostatic proportions [5] | return of cTEC to normal levels / homeostasis [5]
1 | O=P1(N(CCCl)CCCl)NCCCO1 (centres unmarked) [Cyclophosphamide] | almost completely abrogated | marked reduction in all thymocyte subsets | severe thymic involution; also recorded: greatest impact on thymic cellularity | ≤ 28 days | 28 days | mTEC-Hi were proportionally the major subset effected; also recorded: ablated all TEC subsets | TEC as a population are significantly reduced | not effected | – | – | – | – | – | –
2 | C[C@@H]1C[C@H]2[C@@H]3CCC4=CC(=O)C=C[C@]4(C)[C@@]3(F)[C@@H](O)C[C@]2(C)[C@@]1(O)C(=O)CO [Dexamethasone] | – | – | – | – | – | – | – | – | almost completely abrogated | ≤ 14 days | marked reduction in all thymocyte subsets | ≤ 14 days | ≤ 28 days | ≤ 7 days
